From ChEMBL document CHEMBL1156355, “Phenolic compounds from Miconia myriantha inhibiting Candida aspartic proteases” (J Nat Prod, 2001)

How the values were obtained:
[1] = Inhibition of pepsin
[2] = Inhibition of Candida albicans ATCC 10231 secreted aspartic protease

IC50 [1] [µM] | IC50 [2] [µM] | SMILES
66.6 | 8.4 | COc1ccc([C@@H]2CC(=O)c3c(O)c(C)c(O[C@@H]4O[C@@H]5COC(=O)c6cc(O)c(O)c(O)c6-c6c(cc(O)c(O)c6O)C(=O)O[C@H]5[C@H](O)[C@H]4O)c(C)c3O2)cc1
0.31 | 0.016 | CC(C)CC(=O)N[C@H](C(=O)N[C@H](C(=O)N[C@@H](CC(C)C)[C@@H](O)CC(=O)N[C@@H](C)C(=O)N[C@@H](CC(C)C)[C@@H](O)CC(=O)O)C(C)C)C(C)C [PEPSTATIN]
37.1 | 10.5 | O=c1oc2c(O)c(O)cc3c(=O)oc4c(O)c(O)cc1c4c23 [ELLAGIC ACID]
